Results taken from patent publication US20240166702A1, “COMPOSITIONS AND METHODS FOR TREATING BREAST CANCER” (Arizona Board of Regents on Behalf of The University of …, priority 2021, published 2024).

Legend:
nuclear localized EGFR = test: Subcellular protein fractionation for EGFR nuclear localization; type: cell-based, human; settings: MDA-MB-468 serum starved, EGF and peptide for 2 hours
Experimental: Cells were then fractionated and verified by HSP90 cytosolic protein, Bap31 membrane protein, or HDAC nuclear protein. B. MDA-MB-468 cells were serum starved overnight then stimulated with EGF on ice for 10 minutes. […] B. MDA-MB-468 cells were serum starved overnight then incubated on ice with 10 ng/mL EGF for 10 minutes. […] C. […] After the second week, the number of secondary mammospheres were counted.
MDA-MB-468 were serum starved overnight then incubated with EGF and peptide for 2 hours to allow for nuclear localization of EGFR. Subcellular protein fractionation was then performed to isolate cytosolic, membrane, and nuclear protein fractions (FIG. 5A).

IL1RL1 = test: RT-PCR analysis of IL1RL1 in MDA-MB-468 cells; type: cell-based, human; settings: similarly treated MDA-MB-468 cells
Excerpt: A-C. […] A. A gene ontology enrichment bubble plot was produced, and the top 30 enriched GO terms are shown. Color indicates −1*log 10(FDR) for significance of overlap (the higher the more significant). X axis=log odds ratio for genes annotated to that GO term. […] C. RT-PCR analysis of IL1RL1.
A significant impact on the immune response, especially IL-1 dependent pathways was identified (FIG. 12A). IL-1-specific genes were searched and an upregulation in several IL1R genes, including IL1R2, IL1RL1, IL1RL2, IL1RAP and IL1RN (FIG. 12B) were found. […] It is hypothesized that the transient and targeted activation of the IL1/TLR pathway in the tumors may allow for the immune system to become active where previously these tumors were immune suppressive. Triple negative breast cancers with active EGFR pathways are clinically immune suppressive, and it is hypothesized that blocking nEGFR may allow for the utilization of immune targeting to treat these cancers.

[1] = target: EGFR kinase domain / SNX1 Bar domain (Homo sapiens, UniProt P00533); test: MST binding of EGFR kinase domain with SNX1 Bar domain and peptides; settings: EGFR kinase domain 50 nM
Chain of EGFR kinase domain / SNX1 Bar domain (P00533 712-979 limits assumed): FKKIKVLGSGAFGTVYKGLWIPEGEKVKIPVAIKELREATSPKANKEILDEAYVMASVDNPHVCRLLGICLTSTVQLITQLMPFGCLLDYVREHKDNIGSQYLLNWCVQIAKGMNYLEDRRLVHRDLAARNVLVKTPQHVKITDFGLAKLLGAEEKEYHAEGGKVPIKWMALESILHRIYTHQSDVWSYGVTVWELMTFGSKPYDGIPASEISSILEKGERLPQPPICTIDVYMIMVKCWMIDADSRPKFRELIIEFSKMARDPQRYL

MDA-MB-468 cells = type: cell-based, human
Experimental: A. Peptide sequence alignment of modified and stabilized peptides (−) indicates conserved residues, (/) indicates a deleted residue. Modified residues used for staples are (S)-2-(((9H-flouren-9-yl) methoxy) caronylamino)-2-methyl-hept-6-enoic acid (5) and (R)-2-(((9H-flouren-9-yl) methoxy) caronylamino)-2-methyl-dec-9-enoic acid (8). PTD4=Protein Transduction Domain. Ac=acetylation of 5′ end and NH2=amidation of 3′ end. B. MDA-MB-468 cells were treated with 10 μM of the indicated peptide for 3 days. Cell viability was measured using an MTT assay. Vehicle control represents 100%. C. A predicted peptide structure of SNX1.3 was generated using SWISSMODEL with negative (blue) and positive (red) residues highlighted.
B. MDA-MD-468 cells were transduced with an IPTG inducible shEGFR targeted against the 3′ UTR of EGFR. These cells were incubated with IPTG for the indicated number of days and lysates were generated to confirm knock down of EGFR. C. In tandem with B., cells were plated and incubated +/−IPTG for 2 days prior to drug treatment. […] After 5 days of IPTG and 3 days of peptide treatment viability was measured using an MTT assay.
Predicted peptide structure including negatively (blue) and positively (red) charged residues was used to guide the modifications (FIG. 2C).

[2] = tested on: EGFR dependent mammary gland tumors of WAP-TGFα mice; test: Tumor regression study in WAP-TGFα transgenic mice; type: in vivo, mouse
Excerpt: Mice were bred continuously to induce transgene expression and palpated weekly for tumor formation. […] A. Changes in tumor size from entry into study until end of study are shown for each individual tumor, (*) indicate tumors that entered the study at size greater than 500 mm^3, all other tumors entered the study at ˜100 mm^3. B. a Kaplan-Meier survival curve was generated showing when mice were sacrificed by either reaching tumor burden (2000 mm^3) or the end of the study (p=0.0002). C. Upon sacrifice tumors were harvested and fixed in 10% formalin and embedded in paraffin. Slides were stained with hematoxylin and eosin and imaged at 20×. D. Protein lysates were generated from tumors upon sacrifice and probed for the indicated proteins.
C. […] D. Cells were treated similarly as in C., fractionated and evaluated for protein localization by immunoblot.
(§1) Mice are continually bred to activate the pregnancy-dependent WAP promoter, which drives expression of the EGFR ligand Transforming Growth Factor alpha (TGFα) strictly to the mouse mammary glands. This model stochastically forms unifocal mammary adenocarcinomas through a process that begins with mammary hyperplasia, followed by tumor formation over approximately 8 months. […] No difference in weight or behavior or grooming was observed. Therefore 10 μg/g body weight was used for subsequent studies.
When tumors reached >100 mm^3, IV injections began at 3×/week, 10 μg/g body weight and tumors were measured 3×/week with calipers. Animals were injected for 4 weeks or until they reached maximal tumor burden, defined as a single tumor measuring 2000 mm^3. […] The WAP-TGFα is a spontaneous model in which each tumor arises and progresses in a heterogeneous fashion. Each tumor was evaluated separately to determine the overall impact of SNX1.3 treatment (FIG. 3A). […] In this study, mice were sacrificed after 4 weeks of injections or once they reached tumor burden, represented by the Kaplin-Meyer graph (FIG. 3B).

[3] = Toxicity evaluation in C57Bl/6J female mice; type: in vivo, mouse; settings: 5.0 or 10.0 μg/g body weight, 3×/week IV, 2 weeks; cSNX1.3 versus cPTD4; data not shown
Experimental: as §1

[4] = 10 μg/g IV 3×/week, first to last measurement

## CC[C@H](C)[C@H](NC(=O)[C@@H](NC(=O)[C@H](Cc1c[nH]cn1)NC(=O)[C@H](CC(N)=O)NC(=O)[C@H](CCCCN)NC(=O)[C@H](C)NC(=O)[C@H](CCCNC(=N)N)NC(=O)[C@H](C)NC(=O)[C@H](CCC(N)=O)NC(=O)[C@H](CCCNC(=N)N)NC(=O)[C@H](C)NC(=O)[C@H](C)NC(=O)[C@H](C)NC(=O)[C@H](CCCNC(=N)N)NC(=O)[C@H](C)NC(=O)[C@H](Cc1ccc(O)cc1)NC(C)=O)C(C)C)C(=O)N[C@@H](CCCCN)C(=O)N[C@@H](Cc1ccc(O)cc1)C(=O)N[C@@H](CC(C)C)C(=O)N[C@@H](CCC(=O)O)C(=O)N[C@H](C(=O)N[C@@H](CC(C)C)C(=O)N[C@@H](CC(C)C)C(=O)N[C@@H](Cc1ccc(O)cc1)C(=O)N[C@@H](CO)C(=O)N[C@@H](CCC(N)=O)C(=O)N[C@@H](CCC(N)=O)C(=O)N[C@@H](CCC(N)=O)C(=O)N[C@@H](CC(C)C)C(=O)N[C@@H](C)C(=O)N[C@@H](CCCCN)C(=O)N[C@@H](Cc1ccc(O)cc1)C(=O)N[C@@H](Cc1c[nH]c2ccccc12)C(=O)N[C@@H](CCC(=O)O)C(=O)N[C@@H](C)C(=O)N[C@@H](Cc1ccccc1)C(=O)N[C@@H](CC(C)C)C(N)=O)[C@@H](C)O [cSNX1.3]
Nuclear localized EGFR
  nuclear localized EGFR: loss of nuclear localized EGFR
IL1RL1
  IL1RL1 expression: upregulated
[1]
  binding of EGFR to SNX1: competitively inhibits
MDA-MB-468 cells; 9 h
  IC50: 7.5 µM
MDA-MB-468 cells; MDA-MB-468, 10 μM peptide for 3 days, MTT assay
  efficacy after C- and N-terminal peptide end-capping: increased efficacy
MDA-MB-468 cells; MDA-MB-468, 3 days, MTT assay
  inhibition of cell survival, compared with Sapitinib: more effective than Sapitinib
[2]; 10 μg/g IV 3×/week, 4 weeks, p=0.0002 between groups
  mice that reached maximal tumor burden (2000 mm^3) before the end of the study: 1/6
[2]; [4]
  tumors that regressed: 7/11
  tumors with no change in tumor volume: 2/11
[2]; 10 μg/g IV 3×/week, the growing cSNX1.3 tumors entered at greater than 500 mm^3
  tumors that grew through the study: 2
[2]; 10 μg/g body weight IV 3×/week, 4 weeks or until tumor burden, n=11 tumors
  average tumor regression: 4 mm^3/day
[2]; measured with calipers, confirmed during necropsy
  tumors fully regressed: 3
[2]; weighed throughout the study, 10 μg/g IV 3×/week
  impact on animal weight: no impact
[3]
  difference in weight or behavior or grooming: No difference
